Experimental data published in patent US9145434B2 (Boehringer Ingelheim International GmbH, priority 2012, dated 2015).

Key:
Format in all cases: physicochemical
[1] = mechanical stability of the crystals (grinding); settings: allows grinding of the crystals
[2] = physical and chemical stability of the crystalline complex; settings: under various environmental conditions and during the production of a medicament
[3] = tendency to absorb moisture

N#Cc1ccc([C@@H]2O[C@H](CO)[C@@H](O)[C@H](O)[C@H]2O)cc1Cc1ccc(C2CC2)cc1.O=C(O)[C@@H]1CCCN1 [crystalline complex]
mechanical stability [1]: high mechanical stability | physical and chemical stability [2]: high physical and chemical stability | tendency to absorb moisture [3]: does not show a high tendency to absorb moisture
